Test results reported in US12029803B2, “Personal cleansing compositions, methods and uses” (The Procter & Gamble Company, priority 2021, dated 2024).
Entries after “also recorded” stand apart in the source; their conditions may differ.

Test: Observations of appearance, structure and phase separation (Centrifuge Test)
Type: physicochemical
Conditions: sulfate

CCCCCCCCCCCCCOS(=O)(=O)[O-].[Na+] [non-ethoxylated sodium tridecyl sulfate, sodium tridecyl sulfate]
lamellar phase formation of personal cleansing compositions comprising the surfactant: did not form lamellar phase; also recorded: unable to produce a stable lamellar phase
